Source: PMC13258496, “Synthesis of Methoxylated Benzoxanthones as Drug Metabolites of Antischistosomal Schistodiones—A Limited Environmental Risk” (Molecules, 2026)

Tested on: S. aureus
Experiment: Primary antibacterial screening
Assay type: cell-based
Conditions: Staphylococcus aureus
Procedure: The cytotoxicity of the same compounds was evaluated against human fibroblasts (hMRC-5) and mouse macrophages (PMM). All assays were carried out with parent benzylMD (PD, SD-A2′,5′, SD-A3′,5′) and control drug references.
The primary in vitro evaluation of test compounds at LMPH is performed against a broad panel of pathogens to allow proper evaluation of selectivity. Compound stock solutions are prepared in 100% DMSO at 20 mM. The compounds are serially pre-diluted (two-fold or four-fold) in DMSO followed by a further (intermediate) dilution in demineralized water to assure a final in-test DMSO concentration of <1%.

SMILES: CC[C@H]1OC(=O)[C@H](C)[C@@H](O[C@H]2C[C@@](C)(OC)[C@@H](O)[C@H](C)O2)[C@H](C)[C@@H](O[C@@H]2O[C@H](C)C[C@H](N(C)C)[C@H]2O)[C@](C)(O)C[C@@H](C)C(=O)[C@H](C)[C@@H](O)[C@]1(C)O [Erythromycin]
- IC50: 11.3 µM
